Holding throughout (experiment): Cryopreservation success rate after dormancy induction in sugar-supplemented medium
Assay [1] relates to L. minor. The assay is classed as in vivo, Lemna minor. The following applies: sugars at two concentrations: 90 mg/ml (1X) and 270 mg/ml (3X).
Assay [2] relates to L. sp. Branson. It is filed as in vivo. Conditions: for Cryopreservation success, in words: summary of Tables 6 and 7. As for the experimental part: (§1) Lemna minor duckweed plants were cultured on Schenk and Hildebrandt media with 20 mg/ml sucrose at an aerial temperature of between 21° C. and 30° C. and light levels ranging from 200 μM·M^−2·sec^−1 to 450 μM·M^−2·sec^−1 for 1 day up to 1 year. Three frond colonies (each frond colony comprised one or more daughter fronds attached to the mother frond) were aseptically transferred into a 2.0-mL cryovial containing a 900 μL solution of Schenk and Hildebrandt media, […] step. The frond colonies were incubated in this sugar solution for 21-30 days. Each 24-hour photoperiod was comprised of fluctuations in temperature and light levels. Specifically, the daytime hours consisted of culturing the duckweed frond colony at an aerial temperature of 10° C. with a light level of about 25 μM·M^−2·sec^−1 to about 50 μM·M^−2·sec^−1 for a duration of 3 hours, followed by an aerial temperature of 15° C. at a light level of about 25 μM·M^−2·sec^−1 to about 75 μM·M^−2·sec^−1 for a duration of 6 hours, and an aerial temperature of 10° C. with a light level of about 25 μM^−2·sec^−1 to about 50 μM·M^−2·sec^−1 for a duration of 3 hours. During the nighttime hours of the 24-hour photoperiod, the duckweed frond colonies were cultured at an aerial temperature of 4° C. in the absence of light for a duration of 12 hours.
(§2) The duckweed frond colonies were dehydrated in a laminar flow hood in 900 μL of a cryoprotective solution, comprising 1.92 M DMSO, […], 3.26 M glycerol, and 0.4 M sucrose at pH 5.8. The cryovials were incubated in this solution at 4° C. for 30 minutes to 2 hours in the absence of light. Following the incubation, the cryoprotective solution was removed and replaced with 900 μL of fresh cryoprotective solution.
(§3) The duckweed frond colonies were frozen in a slow rate freezer according to the following freezing protocol. The cryovials containing the duckweed frond colonies were held at 4° C. and the temperature was lowered to −4° C. at 1° C. per minute, to −40° C. at 25° C. per minute, and then raised to −12° C. at 10° C. per minute. The temperature was again lowered to −40° C. at 1° C. per minute, to −90° C. at 10° C. per minute, and then lowered to −150° C. at 10° C. per minute. Once frozen, the vials containing the frond colonies were transferred to the vapor phase of liquid nitrogen for storage.
(§4) After up to 17 months in storage, the frozen duckweed frond colonies were thawed and recovered as follows. The vials containing the frozen duckweed frond colonies were transferred from the liquid nitrogen storage tank to a laminar flow hood and were thawed at room temperature for approximately ten minutes. The cryoprotective solution was removed and replaced with 900 μL of Schenk and Hildebrandt medium, supplemented with 1.2 M sucrose, followed by a ten minute incubation at room temperature. The 1.2 M sucrose was subsequently diluted by a series of five dilutions whereby 450 μL of the 1.2 M sucrose solution was removed and replaced with 450 μL of Schenk and Hildebrandt medium supplemented with 20 mg/ml sucrose. Following the serial dilutions, the frond colonies were transferred to a petri dish with Schenk and Hildebrandt medium, supplemented with 10 mg/ml sucrose and 1% (weight/volume) agar. The duckweed frond colonies were cultured at an aerial temperature of between 21° C. and 30° C. with light levels ranging from about 20 μM·M^−2·sec^−1 to about 100 μM·M^−2·sec^−1 for 7-14 days prior to calculating the success rate of the cryopreservation procedure.
(§5) The cryopreservation success rate was calculated by the total number of visible daughter fronds (or daughter fronds with viable tissue) to survive the freezing process and successfully reproduce new daughter fronds as a percentage of the total number of visible daughter fronds that were frozen. Viability of tissue or of daughter fronds was assessed by the presence of green tissue and the ability of these fronds or frond tissues to reproduce and generate new daughter fronds. […]

In assay [3] the test system is BAP01-B2-230 line. It is filed as in vivo, Lemna minor. Conditions: sugars at two concentrations: 90 mg/ml (1X) and 270 mg/ml (3X). As for the experimental part:
(§6) Lemna minor duckweed plants were cultured on Schenk and Hildebrandt media with 20 mg/ml sucrose at an aerial temperature of between 21° C. and 30° C. and light levels ranging from […] for 1 day up to 1 year. Three frond colonies (each frond colony comprised one or more daughter fronds attached to the mother frond) were aseptically transferred into a 2.0-mL cryovial containing a 900 μL solution of Schenk and Hildebrandt media, supplemented with 15 mg/ml of each D-trehalose dihydrate, sucrose, D-sorbitol, D-raffinose pentahydrate, D-glucose, and D-mannitol for the dormancy-induction step. The frond colonies were incubated in this sugar solution for 21-30 days. Each 24-hour photoperiod was comprised of fluctuations in temperature and light levels. Specifically, the daytime hours consisted of culturing the duckweed frond colony at an aerial temperature of 10° C. with a light level of about 25 μM·M^−2·sec^−1 to about 50 μM·M^−2·sec^−1 for a duration of 3 hours, followed by an aerial temperature of 15° C. at a light level of about 25 μM·M^−2·sec^−1 to about 75 μM·M^−2·sec^−1 for a duration of 6 hours, and an aerial temperature of 10° C. with a light level of about 25 μM^−2·sec^−1 to about 50 μM·M^−2·sec^−1 for a duration of 3 hours. During the nighttime hours of the 24-hour photoperiod, the duckweed frond colonies were cultured at an aerial temperature of 4° C. in the absence of light for a duration of 12 hours.
as §2, §3, §4
(§7) The cryopreservation success rate was calculated by the total number of visible daughter fronds (or daughter fronds with viable tissue) to survive the freezing process and successfully reproduce new daughter fronds as a percentage of the total number of visible daughter fronds that were frozen. […]

Assay [4] deals with L. minor. It is filed as in vivo, Lemna minor. The following applies: for Cryopreservation success rate: single sugars 90 mg/ml unless the label says 20 mg/ml, six sugar combo 15 mg/ml each; for Cryopreservation success, in words: summary of Tables 6 and 7. On the procedure:
as §6, §2, §3, §4, §7

Assay [5] relates to IFN61-B2-101 line. The assay is classed as in vivo, Lemna minor. The following applies: sugars at two concentrations: 90 mg/ml (1X) and 270 mg/ml (3X). As for the experimental part:
as §1, §2, §3, §4, §5

Assay [6] deals with L. yungensis. It is filed as in vivo, Lemna yungensis. The following applies: for Cryopreservation success rate: single sugars 90 mg/ml unless the label says 20 mg/ml, six sugar combo 15 mg/ml each; for Cryopreservation success, number of surviving fronds: sugar 90 mg/ml; for Cryopreservation success, in words: summary of Tables 6 and 7.
Assay [7] relates to Sp. polyrrhiza. The assay is classed as in vivo, Spirodela polyrrhiza. Conditions: for Cryopreservation success rate: single sugars 90 mg/ml unless the label says 20 mg/ml, six sugar combo 15 mg/ml each; for Cryopreservation success, in words: summary of Tables 6 and 7.
Where [8] appears, read: first set of experiments, single sugars 90 mg/ml unless the label says 20 mg/ml, six sugar combo 15 mg/ml each, in Schenk and Hildebrandt media during dormancy induction.
Setting [9] is: second set of experiments, single sugars 90 mg/ml unless the label says 20 mg/ml, six sugar combo 15 mg/ml each.

On to `O=C[C@H](O)[C@@H](O)[C@H](O)[C@H](O)CO` [Glucose, glucose], for which the Cryopreservation success rate was 0% (0/12) in assay [1] (listed as Glucose 1X); 0% (0/16) in assay [1] (listed as Glucose 3X); 88.5% (23/26) in assay [2] (setting [8]); 53.3% (8/15) in assay [2] (setting [9]); 0% (0/11) in assay [2] (sugars at two concentrations: 90 mg/ml (1X) and 270 mg/ml (3X), listed as Glucose 1X); 0% (0/15) in assay [2] (sugars at two concentrations: 90 mg/ml (1X) and 270 mg/ml (3X), listed as Glucose 3X). Further, the Cryopreservation success rate is reported as 0% (0/14) in assay [3] (listed as Glucose 1X); 0% (0/13) in assay [3] (listed as Glucose 3X); 5.9% (1/17) in assay [4] (first set of experiments); 53.9% (7/13) in assay [4] (second set of experiments); 5.3% in assay [5] (listed as Glucose 1X); 0% in assay [5] (listed as Glucose 3X). In addition, the Cryopreservation success rate in assay [6] (first set of experiments) is recorded as 0%; in assay [6] (second set of experiments), 0%; in assay [7] (first set of experiments), 0% (0/4); in assay [7] (second set of experiments), 0% (0/4). The “Cryopreservation success, in words” value in assay [4] was “lower cryopreservation success rates”.

Regarding `OC[C@@H](O)[C@@H](O)[C@H](O)[C@H](O)CO` [Mannitol, mannitol], the Cryopreservation success rate is recorded as 33.3% (6/18) in assay [2] (setting [8]); 28.6% (4/14) in assay [2] (setting [9]); 0% (0/8) in assay [4] (first set of experiments); 0% (0/14) in assay [4] (second set of experiments); 50% (4/8) in assay [7] (first set of experiments); 57.1% (4/7) in assay [7] (second set of experiments). Moreover, the “Cryopreservation success, in words” value was “low relative to the other sugars that were tested” in assay [2], “ineffective” in assay [4], “successfully cryopreserved” in assay [6] and “successfully cryopreserved” in assay [7]. In addition, the “Cryopreservation success, number of surviving fronds” value in assay [6] (first set of experiments) came out at 1 frond; in assay [6] (second set of experiments) it was 2 fronds.

In the case of `OC[C@H]1O[C@H](OC[C@H]2O[C@H](O[C@]3(CO)O[C@H](CO)[C@@H](O)[C@@H]3O)[C@H](O)[C@@H](O)[C@@H]2O)[C@H](O)[C@@H](O)[C@H]1O` [Raffinose, raffinose], the Cryopreservation success rate in assay [1] (listed as Raffinose 1X) is 96% (24/25); in assay [1] (listed as Raffinose 3X), 0% (0/19); in assay [2] (setting [8]), 100% (23/23); in assay [2] (setting [9]), 100% (17/17); in assay [2] (sugars at two concentrations: 90 mg/ml (1X) and 270 mg/ml (3X), listed as Raffinose 1X) it was 100% (20/20); in assay [2] (sugars at two concentrations: 90 mg/ml (1X) and 270 mg/ml (3X), listed as Raffinose 3X), 0% (0/12). Besides, the Cryopreservation success rate is 96.2% (25/26) in assay [3] (listed as Raffinose 1X); 0% (0/14) in assay [3] (listed as Raffinose 3X); 100% (16/16) in assay [4] (first set of experiments); 92.9% (13/14) in assay [4] (second set of experiments); 100% in assay [5] (listed as Raffinose 1X); 26.7% in assay [5] (listed as Raffinose 3X). Also, the Cryopreservation success rate in assay [6] (first set of experiments) is reported as 0%; in assay [6] (second set of experiments) it was 0%; in assay [7] (first set of experiments) it was 0% (0/6); in assay [7] (second set of experiments) it was 0% (0/12). In assay [4], the “Cryopreservation success, in words” value is recorded as “prefers”.

Take `OC[C@@H](O)[C@@H](O)[C@H](O)[C@@H](O)CO` [Sorbitol, sorbitol]: the Cryopreservation success rate was 27.3% (6/22) in assay [2] (setting [8]); 16.7% (2/12) in assay [2] (setting [9]); 0% (0/13) in assay [4] (first set of experiments); 0% (0/4) in assay [4] (second set of experiments); 12.5% (1/8) in assay [7] (first set of experiments); 25% (1/4) in assay [7] (second set of experiments). In addition, the “Cryopreservation success, in words” value was “low relative to the other sugars that were tested” in assay [2], “ineffective” in assay [4], “successfully cryopreserved” in assay [6] and “successfully cryopreserved” in assay [7]. For the same molecule, the “Cryopreservation success, number of surviving fronds” value in assay [6] (first set of experiments) and in assay [6] (second set of experiments) was 1 frond each time.

On to `OC[C@H]1O[C@H](O[C@H]2O[C@H](CO)[C@@H](O)[C@H](O)[C@H]2O)[C@H](O)[C@@H](O)[C@@H]1O` [Trehalose, trehalose], for which the Cryopreservation success rate in assay [1] (listed as Trehalose 1X) is 100% (15/15); in assay [1] (listed as Trehalose 3X), 0% (0/12); in assay [2] (setting [8]), 100% (20/20); in assay [2] (setting [9]), 100% (16/16); in assay [2] (sugars at two concentrations: 90 mg/ml (1X) and 270 mg/ml (3X), listed as Trehalose 1X), 100% (17/17); in assay [2] (sugars at two concentrations: 90 mg/ml (1X) and 270 mg/ml (3X), listed as Trehalose 3X) it was 0% (0/17). In addition, the Cryopreservation success rate in assay [3] (listed as Trehalose 1X) is recorded as 85% (17/20); in assay [3] (listed as Trehalose 3X), 0% (0/12); in assay [4] (first set of experiments), 100% (17/17); in assay [4] (second set of experiments), 85.7% (12/14); in assay [5] (listed as Trehalose 1X), 93.8%; in assay [5] (listed as Trehalose 3X) it was 7.1%. In addition, the Cryopreservation success rate in assay [6] (first set of experiments) was 0%; in assay [6] (second set of experiments), 0%; in assay [7] (first set of experiments), 0% (0/4); in assay [7] (second set of experiments), 0% (0/15). The “Cryopreservation success, in words” value in assay [4] is listed as “prefers”.
